Source: ChEMBL document CHEMBL6115028, “An Amazing 30-Year Journey around the DABO Family: A Medicinal Chemistry Lesson on a Versatile Class of Non-nucleoside HIV-1 Reverse Transcriptase Inhibitors” (J Med Chem, 2025)
pEC50, pIC50: −log10 of the molar value. In brackets after ≈: the same amount, converted by molar mass.

Key:
A-375 [1] = test: Inhibition of cell proliferation in human A-375 cells assessed as alive cells at 2.5 uM measured for 96 hrs relative to control; format: functional
A-375 [2] = test: Inhibition of cell proliferation in human A-375 cells assessed as alive cells at 25 uM measured for 96 hrs relative to control; format: functional
A-375 [3] = test: Inhibition of cell proliferation in human A-375 cells assessed as alive cells at 10 uM measured for 96 hrs relative to control; format: functional
A-375 [4] = test: Inhibition of cell proliferation in human A-375 cells assessed as alive cells at 5 uM measured for 96 hrs relative to control; format: functional
Pseudomonas aeruginosa = test: Antibacterial activity against Pseudomonas aeruginosa ATCC 27853 assessed as reduction in bacterial growth incubated for 24 to 48 hrs by serial dilution method; format: functional; settings: time 24-48 hrs
Bacillus subtilis = test: Antibacterial activity against Bacillus subtilis NRRL B-1481 assessed as reduction in bacterial growth incubated for 24 to 48 hrs by serial dilution method; format: functional; settings: time 24-48 hrs
Staphylococcus aureus = test: Antibacterial activity against Staphylococcus aureus ATCC 6538 assessed as reduction in bacterial growth incubated for 24 to 48 hrs by serial dilution method; format: functional; settings: time 24-48 hrs
Escherichia coli = test: Antibacterial activity against Escherichia coli ATCC 25922 assessed as reduction in bacterial growth incubated for 24 to 48 hrs by serial dilution method; format: functional; settings: time 24-48 hrs
Micrococcus luteus = test: Antibacterial activity against Micrococcus luteus ATCC 2188 assessed as reduction in bacterial growth incubated for 24 to 48 hrs by serial dilution method; format: functional; settings: time 24-48 hrs
Influenza A virus [5] = test: Antiviral activity against Influenza A virus A/H1N1 infected in dog MDCK cells reduction in viral replication incubated for 3 days by MTS assay; format: functional, organism-based; settings: 72 h
Influenza A virus [6] = test: Antiviral activity against Influenza A virus A/H2N2 infected in dog MDCK cells reduction in viral replication incubated for 3 days by MTS assay; format: functional, organism-based; settings: 72 h
Influenza A virus [7] = test: Antiviral activity against Influenza A virus A/H1N1 infected in MDCK cells reduction in virus induced cytopathic effect measured after 3 days by CPE assay; format: functional, organism-based; settings: 72 h
[8] = Cytotoxicity against dog MDCK cells assessed as reduction in cell viability measured for 3 days by MTT assay; format: toxicity, cell-based, Canis lupus familiaris; settings: time 3 day
Influenza A virus [9] = test: Antiviral activity against Influenza A virus A/H2N2 infected in dog MDCK cells reduction in virus induced cytopathic effect measured after 3 days by CPE assay; format: functional, organism-based; settings: 72 h
Influenza B virus [10] = test: Antiviral activity against Influenza B virus infected in dog MDCK cells assessed as reduction in viral replication incubated for 3 days by MTS assay; format: functional, organism-based; settings: 72 h
Influenza B virus [11] = test: Antiviral activity against Influenza B virus infected in dog MDCK cells assessed as reduction in cytopathic effect measured after 3 days by CPE assay; format: functional, organism-based; settings: 72 h
HOP-92 = test: Growth inhibition of human HOP-92 cells at 10 uM relative to control; format: functional; settings: read-out: GI
[12] = Inhibition of Zika virus NS5 RNA-directed RNA polymerase NS5
[13] = Cytotoxicity against African green monkey Vero cells assessed as reduction in cell growth measured after 96 hrs by MTT assay; format: toxicity, cell-based; settings: chlorocebus sabaeus
[14] = Cytotoxicity against African green monkey Vero cells assessed as reduction in cell viability measured after 96 hrs by MTT assay; format: toxicity, cell-based; settings: chlorocebus sabaeus
Zika virus = test: Antiviral activity against Zika virus infected in Vero cells assessed as reduction in viral DNA replication; format: functional, organism-based
[15] = Inhibition of Hepatitis C virus NS5B RNA dependent RNA polymerase; design: species or system Hepacivirus hominis
A-375 [16] = test: Inhibition of cell proliferation in human A-375 cells assessed as alive cells at 100 uM measured for 96 hrs relative to control; format: functional
A-375 [17] = test: Inhibition of cell proliferation in human A-375 cells assessed as alive cells at 50 uM measured for 96 hrs relative to control; format: functional
Huh-7 = test: Cytotoxicity against human Huh-7 cells assessed as reduction in cell growth; format: functional
Hepatitis C virus = test: Antiviral activity against Hepatitis C virus infected in human Huh7.5 cells assessed as reduction in viral replication; format: functional, organism-based, Hepacivirus hominis
MOLT-4 = test: Growth inhibition of human MOLT-4 cells at 10 uM relative to control; format: functional; settings: read-out: GI

Structure (SMILES): CCC(C)Sc1nc(C(CC)c2c(F)cccc2F)c(C)c(=O)[nH]1 (stereo not drawn)
- inhibition at 2.5 µM (A-375 [1]): 70%
- inhibition at 25 µM (A-375 [2]): 5%
- inhibition at 10 µM (A-375 [3]): 12%
- inhibition at 5 µM (A-375 [4]): 30%

Structure (SMILES): COc1cc(-c2nc(SC)[nH]c(=O)c2C#N)ccc1OCc1ccccc1
- MIC (Pseudomonas aeruginosa): 12.5 µg/mL (≈ 32.9 µM)
- MIC (Bacillus subtilis): 6.25 µg/mL (≈ 16.5 µM)
- MIC (Staphylococcus aureus): 12.5 µg/mL (≈ 32.9 µM)
- MIC (Escherichia coli): 12.5 µg/mL (≈ 32.9 µM)
- MIC (Micrococcus luteus): 12.5 µM (≈ 4.74 µg/mL)

Structure (SMILES): COc1ccc(NC(=O)CSc2nc(Cc3cccc4ccccc34)c(C)c(=O)[nH]2)cc1
- pEC50 (Influenza A virus [5]): 5.05
- pEC50 (Influenza A virus [6]): 5.01
- pEC50 (Influenza A virus [7]): 5.05
- CC50 at 72 h [8]: > 224 µM
- pEC50 (Influenza A virus [9]): 4.59
- pEC50 (Influenza B virus [10]): < 4.66
- pEC50 (Influenza B virus [11]): < 4.35

Structure (SMILES): N#Cc1c(-c2c(Cl)cccc2Cl)nc(SCC(=O)c2ccc(Br)cc2)[nH]c1=O
- inhibition of growth at 10 µM (HOP-92): 41%

Structure (SMILES): CCc1c(C2CCCCC2)nc(SCC(=O)Nc2cc(F)cc(F)c2)[nH]c1=O
- pIC50 [12]: 4.94
- CC50 at 96 h [13]: > 200 µM
- CC50 at 96 h [14]: > 10 µM
- pEC50 (Zika virus): 5.12
- pIC50 [15]: 6.99

Structure (SMILES): CCC(C)Sc1nc(C(C)c2c(F)cccc2F)nc(=O)[nH]1 (stereo not drawn)
- inhibition at 100 µM (A-375 [16]): 14%
- inhibition at 50 µM (A-375 [17]): 62%

Structure (SMILES): CCc1c(-c2ccc(C(C)C)cc2)nc(Sc2ccccc2Br)[nH]c1=O
- CC50 (Huh-7): > 250 µM
- pIC50 [15]: 5.42
- pEC50 (Hepatitis C virus): 4.49

Structure (SMILES): CCc1ccc(-c2nc(SCC(=O)c3ccc(Br)cc3)[nH]c(=O)c2C#N)s1
- inhibition of growth at 10 µM (MOLT-4): 42.4%
